Measurements as given in PubChem BioAssay AID1963825 (Molecular Pharmacology Branch, DTP, NCI, 2024).

Assay: Anticancer human tumor 997537-175-T-J1-PDC patient-derived colon adenocarcinoma cell line growth inhibition [POLQ]
Details: 997537-175-T-J1-PDC complex spheroid viability, combination with POLQ inhibitors; for IC50: curve of first compound; for viability, T/C: stronger effect = lower value
How it was run: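 Growth inhibition in 3D: complex spheroids (tumor PDC, HUVEC, MSC) treated with POLQ inhibitor combinations; where Cmax unknown, highest tested concentration 10 microM, except SN-38 at 1 microM.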

[1] = second compound 0.0316 µM, first compound 0.0316 µM
[2] = second compound 0.0316 µM, first compound 0.1 µM
[3] = second compound 0.1 µM, first compound 0.0316 µM
[4] = second compound 0.1 µM, first compound 0.1 µM
[5] = second compound 0.316 µM, first compound 0.0316 µM
[6] = second compound 0.316 µM, first compound 0.1 µM
[7] = second compound 1 µM, first compound 0.0316 µM
[8] = second compound 1 µM, first compound 0.1 µM
[9] = second compound 3.16 µM, first compound 0.0316 µM
[10] = second compound 3.16 µM, first compound 0.1 µM
[11] = second compound 10 µM, first compound 0.0316 µM
[12] = second compound 10 µM, first compound 0.1 µM
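Further: luminescence signal used as a surrogate for viable cells; spheroids exposed to drugs for seven days before readout.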

## Nc1ccn(C2OC(CO)C(O)C2(F)F)c(=O)n1 (centres undefined) + COC1C(OC(N)=O)C(O)C(Oc2ccc3c(O)c(NC(=O)c4ccc(O)c(CC=C(C)C)c4)c(=O)oc3c2C)OC1(C)C
Second compound 0.0316 µM
  IC50: > 10 µM
Second compound 0.1 µM
  IC50: > 10 µM
Second compound 0.316 µM
  IC50: > 10 µM
Second compound 1 µM
  IC50: > 10 µM
Second compound 3.16 µM
  IC50: > 10 µM
Second compound 10 µM
  IC50: > 10 µM
[1]
  viability, T/C: 95.8%
[2]
  viability, T/C: 108%
Second compound 0.0316 µM, first compound 0.316 µM
  viability, T/C: 79.4%
Second compound 0.0316 µM, first compound 1 µM
  viability, T/C: 85.2%
Second compound 0.0316 µM, first compound 3.16 µM
  viability, T/C: 65.8%
Second compound 0.0316 µM, first compound 10 µM
  viability, T/C: 88.2%
[3]
  viability, T/C: 108%
[4]
  viability, T/C: 106%
Second compound 0.1 µM, first compound 0.316 µM
  viability, T/C: 72.2%
Second compound 0.1 µM, first compound 1 µM
  viability, T/C: 95%
Second compound 0.1 µM, first compound 3.16 µM
  viability, T/C: 80.6%
Second compound 0.1 µM, first compound 10 µM
  viability, T/C: 74.9%
[5]
  viability, T/C: 103%
[6]
  viability, T/C: 106%
Second compound 0.316 µM, first compound 0.316 µM
  viability, T/C: 88.7%
Second compound 0.316 µM, first compound 1 µM
  viability, T/C: 78.4%
Second compound 0.316 µM, first compound 3.16 µM
  viability, T/C: 73.9%
Second compound 0.316 µM, first compound 10 µM
  viability, T/C: 66.8%
[7]
  viability, T/C: 106%
[8]
  viability, T/C: 89.9%
Second compound 1 µM, first compound 0.316 µM
  viability, T/C: 100%
Second compound 1 µM, first compound 1 µM
  viability, T/C: 76.5%
Second compound 1 µM, first compound 3.16 µM
  viability, T/C: 63.6%
Second compound 1 µM, first compound 10 µM
  viability, T/C: 70.6%
[9]
  viability, T/C: 97.9%
[10]
  viability, T/C: 97%
Second compound 3.16 µM, first compound 0.316 µM
  viability, T/C: 92.5%
Second compound 3.16 µM, first compound 1 µM
  viability, T/C: 94.6%
Second compound 3.16 µM, first compound 3.16 µM
  viability, T/C: 71.7%
Second compound 3.16 µM, first compound 10 µM
  viability, T/C: 62.7%
[11]
  viability, T/C: 84.6%
[12]
  viability, T/C: 90.8%
Second compound 10 µM, first compound 0.316 µM
  viability, T/C: 86.5%
Second compound 10 µM, first compound 1 µM
  viability, T/C: 63.7%
Second compound 10 µM, first compound 3.16 µM
  viability, T/C: 71.6%
Second compound 10 µM, first compound 10 µM
  viability, T/C: 72.3%

## Cn1ncnc1[C@H]1c2n[nH]c(=O)c3cc(F)cc(c23)N[C@@H]1c1ccc(F)cc1 + COC1C(OC(N)=O)C(O)C(Oc2ccc3c(O)c(NC(=O)c4ccc(O)c(CC=C(C)C)c4)c(=O)oc3c2C)OC1(C)C
Second compound 0.0316 µM
  IC50: > 0.1 µM
Second compound 0.1 µM
  IC50: > 0.1 µM
Second compound 0.316 µM
  IC50: > 0.1 µM
Second compound 1 µM
  IC50: > 0.1 µM
Second compound 3.16 µM
  IC50: > 0.1 µM
Second compound 10 µM
  IC50: > 0.1 µM
Second compound 0.0316 µM, first compound 0.000316 µM
  viability, T/C: 92.9%
Second compound 0.0316 µM, first compound 0.001 µM
  viability, T/C: 99.7%
Second compound 0.0316 µM, first compound 0.00316 µM
  viability, T/C: 108%
Second compound 0.0316 µM, first compound 0.01 µM
  viability, T/C: 97.1%
[1]
  viability, T/C: 90.9%
[2]
  viability, T/C: 82.8%
Second compound 0.1 µM, first compound 0.000316 µM
  viability, T/C: 102%
Second compound 0.1 µM, first compound 0.001 µM
  viability, T/C: 96.8%
Second compound 0.1 µM, first compound 0.00316 µM
  viability, T/C: 91.8%
Second compound 0.1 µM, first compound 0.01 µM
  viability, T/C: 91.9%
[3]
  viability, T/C: 97.9%
[4]
  viability, T/C: 91.5%
Second compound 0.316 µM, first compound 0.000316 µM
  viability, T/C: 102%
Second compound 0.316 µM, first compound 0.001 µM
  viability, T/C: 95.9%
Second compound 0.316 µM, first compound 0.00316 µM
  viability, T/C: 98.3%
Second compound 0.316 µM, first compound 0.01 µM
  viability, T/C: 91%
[5]
  viability, T/C: 91.7%
[6]
  viability, T/C: 92.8%
Second compound 1 µM, first compound 0.000316 µM
  viability, T/C: 104%
Second compound 1 µM, first compound 0.001 µM
  viability, T/C: 97.1%
Second compound 1 µM, first compound 0.00316 µM
  viability, T/C: 94.9%
Second compound 1 µM, first compound 0.01 µM
  viability, T/C: 101%
[7]
  viability, T/C: 104%
[8]
  viability, T/C: 102%
Second compound 3.16 µM, first compound 0.000316 µM
  viability, T/C: 97%
Second compound 3.16 µM, first compound 0.001 µM
  viability, T/C: 104%
Second compound 3.16 µM, first compound 0.00316 µM
  viability, T/C: 94.8%
Second compound 3.16 µM, first compound 0.01 µM
  viability, T/C: 96.4%
[9]
  viability, T/C: 105%
[10]
  viability, T/C: 83.3%
Second compound 10 µM, first compound 0.000316 µM
  viability, T/C: 94.7%
Second compound 10 µM, first compound 0.001 µM
  viability, T/C: 94.8%
Second compound 10 µM, first compound 0.00316 µM
  viability, T/C: 89.1%
Second compound 10 µM, first compound 0.01 µM
  viability, T/C: 110%
[11]
  viability, T/C: 98.3%
[12]
  viability, T/C: 102%
